Laboratory results published in patent publication US20090247559A1 (Exelixis, Inc., priority 2007, published 2009).

Tests used:
[1] = target: CK2 (Homo sapiens, UniProt P68400); assay: CK2 inhibition, biochemical chemiluminescence holoenzyme assay (Kinase Glo, IC50 determination); settings: Table 1 activity class; symbol given only if active; read-out: CK2 IC50 (Activity C)
Outline: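 Holoenzyme CK2 assay; compounds pre-incubated with substrate and enzyme, then reacted 150 min at 24-27° C. Remaining ATP measured as luminescence with Kinase Glo, and IC50 derived from the signal.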

[2] = target: PIM (PIM-1, PIM-2, and/or PIM-3); assay: PIM-1, PIM-2 and PIM-3 inhibition, biochemical chemiluminescence assays (Kinase Glo, IC50 determination); settings: Table 1 activity class; PIM refers to PIM-1, PIM-2, and/or PIM-3; read-out: PIM IC50 (Activity B)

Chain of CK2 (P68400 whole entry): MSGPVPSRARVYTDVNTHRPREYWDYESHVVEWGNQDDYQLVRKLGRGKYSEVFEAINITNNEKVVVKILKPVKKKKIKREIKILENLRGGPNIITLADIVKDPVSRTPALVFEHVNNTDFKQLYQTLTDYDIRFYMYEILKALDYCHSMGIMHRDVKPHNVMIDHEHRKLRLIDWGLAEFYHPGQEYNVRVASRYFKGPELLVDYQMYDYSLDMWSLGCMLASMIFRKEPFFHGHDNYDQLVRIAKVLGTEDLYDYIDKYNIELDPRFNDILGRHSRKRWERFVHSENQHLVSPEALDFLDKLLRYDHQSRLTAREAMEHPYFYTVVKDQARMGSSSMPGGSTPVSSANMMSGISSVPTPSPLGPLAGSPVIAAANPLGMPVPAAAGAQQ
Chain of CK2 (P67870 whole entry partner): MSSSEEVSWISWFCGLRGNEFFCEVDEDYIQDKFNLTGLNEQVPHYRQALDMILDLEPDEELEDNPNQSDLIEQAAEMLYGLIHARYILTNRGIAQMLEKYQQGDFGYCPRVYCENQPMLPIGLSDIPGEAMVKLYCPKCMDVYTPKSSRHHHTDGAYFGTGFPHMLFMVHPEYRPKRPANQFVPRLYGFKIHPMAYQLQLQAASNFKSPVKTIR

| SMILES | IC50 [1] [µM] | IC50 [2] [µM] |
| --- | --- | --- |
| O=c1[nH]c(-c2ccccc2F)nc2c1oc1ccc(Br)cc12 [Compound 58, 8-Bromo-2-(2-fluorophenyl)[1]benzofuro[3,2-d]pyrimidin-4(3H)-one] | < 10 | < 10 |
| CN1CCC(Cc2nc3c(oc4ccc(Br)cc43)c(=O)[nH]2)CC1 [Compound 244, 8-bromo-2-[(1-methylpiperidin-4-yl)methyl][1]benzofuro[3,2-d]pyrimidin-4(3H)-one] | < 10 | < 10 |
| O=c1[nH]c(COc2ccccc2)nc2c1oc1ccc(Br)cc12 [Compound 15, 8-bromo-2-[(phenyloxy)methyl][1]benzofuro[3,2-d]pyrimidin-4(3H)-one] | < 10 | < 10 |
| Cc1cc(NCC2CCNCC2)ccc1-c1nc2c(oc3ccc(Br)cc32)c(=O)[nH]1 [Compound 54, 8-bromo-2-{2-methyl-4-[(piperidin-4-ylmethyl)amino]phenyl}[1]benzofuro[3,2-d]pyrimidin-4(3H)-one] | < 10 | < 10 |
| O=c1[nH]c(CN2CC[C@H](O)C2)nc2c1oc1ccccc12 [Compound 204, 2-{[(3S)-3-hydroxypyrrolidin-1-yl]methyl}[1]benzofuro[3,2-d]pyrimidin-4(3H)-one] | < 10 | < 10 |
| CCC(c1nc2c(oc3ccc(Br)cc32)c(=O)[nH]1)N1CCN(C)CC1 (centres unmarked) [Compound 172, 8-bromo-2-[1-(4-methylpiperazin-1-yl)propyl][1]benzofuro[3,2-d]pyrimidin-4(3H)-one] | < 10 | < 10 |
| O=c1[nH]c(-c2cccc(Cl)c2)nc2c1oc1ccc(Br)cc12 [Compound 93, 8-Bromo-2-(3-chlorophenyl)[1]benzofuro[3,2-d]pyrimidin-4(3H)-one] | < 10 | < 10 |
| O=c1[nH]c(-c2ncc[nH]2)nc2c1oc1ccc(Br)cc12 [Compound 85, 8-bromo-2-(1H-imidazol-2-yl)[1]benzofuro[3,2-d]pyrimidin-4(3H)-one] | < 10 | < 10 |
| CN(C)c1cccc(CNCc2nc3c(oc4ccc(Br)cc43)c(=O)[nH]2)c1 [Compound 21, 8-bromo-2-[({[3-(dimethylamino)phenyl]methyl}amino)methyl][1]benzofuro[3,2-d]pyrimidin-4(3H)-one] | < 10 | < 10 |
| O=c1[nH]c(CNCc2ccncc2)nc2c1oc1ccc(Br)cc12 [Compound 165, 8-bromo-2-{[(pyridin-4-ylmethyl)amino]methyl}[1]benzofuro[3,2-d]pyrimidin-4(3H)-one] | < 10 | < 10 |
| CN1CCC(N2CCN(c3nc4c(oc5ccc(Br)cc54)c(=O)[nH]3)CC2)CC1 [Compound 228, 8-bromo-2-[4-(1-methylpiperidin-4-yl)piperazin-1-yl][1]benzofuro[3,2-d]pyrimidin-4(3H)-one] | < 10 | < 10 |
| O=c1[nH]c(CN2CCC(c3ccccc3)CC2)nc2c1oc1ccc(Br)cc12 [Compound 238, 8-bromo-2-[(4-phenylpiperidin-1-yl)methyl][1]benzofuro[3,2-d]pyrimidin-4(3H)-one] | < 10 | < 10 |
| O=c1[nH]c(-c2ccccn2)nc2c1oc1ccc(Br)cc12 [Compound 57, 8-Bromo-2-pyridin-2-yl[1]benzofuro[3,2-d]pyrimidin-4(3H)-one] | < 10 | < 10 |
| COc1cccc2oc3c(=O)[nH]c(-c4ccc5[nH]nc(N)c5c4)nc3c12 [Compound 171, 2-(3-amino-1H-indazol-5-yl)-9-(methyloxy)[1]benzofuro[3,2-d]pyrimidin-4(3H)-one] | < 10 | < 10 |
| Cc1ccc(N2C[C@@H]3C[C@H]2CN3Cc2nc3c(oc4ccc(Br)cc43)c(=O)[nH]2)cc1 [Compound 192, 8-bromo-2-{[(1S,4S)-5-(4-methylphenyl)-2,5-diazabicyclo[2.2.1]hept-2-yl]methyl}[1]benzofuro[3,2-d]pyrimidin-4(3H)-one] | < 10 | < 10 |
| O=c1[nH]c(CNc2ccccc2)nc2c1oc1ccc(Br)cc12 [Compound 16, 8-bromo-2-[(phenylamino)methyl][1]benzofuro[3,2-d]pyrimidin-4(3H)-one] | < 10 | < 10 |
| CN(C)c1ccc(-c2nc3c(oc4ccc(Br)cc43)c(=O)[nH]2)c(Cl)c1 [Compound 41, 8-bromo-2-[2-chloro-4-(dimethylamino)phenyl][1]benzofuro[3,2-d]pyrimidin-4(3H)-one] | < 10 | < 10 |
| O=C(NCc1ccccc1)c1cccc(-c2nc3c(oc4ccc(Br)cc43)c(=O)[nH]2)c1 [Compound 99, 3-(8-bromo-4-oxo-3,4-dihydro[1]benzofuro[3,2-d]pyrimidin-2-yl)-N-(phenylmethyl)benzamide] | < 10 | < 10 |

Other lines, results leading:

| IC50 [1] [µM] | IC50 [2] [µM] | SMILES |
| --- | --- | --- |
| < 10 | < 10 | O=C(Nc1ccc(Cl)c(-c2nc3c(oc4ccc(Br)cc43)c(=O)[nH]2)c1)C1CCOC1 (centres unmarked) [Compound 361, N-[3-(8-bromo-4-oxo-3,4-dihydro[1]benzofuro[3,2-d]pyrimidin-2-yl)-4-chlorophenyl]tetrahydrofuran-3-carboxamide] |
| < 10 | < 10 | CC(O)CN(Cc1nc2c(oc3ccc(Br)cc32)c(=O)[nH]1)CC(C)O (centres unmarked) [Compound 403, 2-{[bis(2-hydroxypropyl)amino]methyl}-8-bromo[1]benzofuro[3,2-d]pyrimidin-4(3H)-one] |
| < 10 | < 10 | COc1cccc(CCNc2ccc3oc4c(=O)[nH]c(CN5CC[C@H](O)C5)nc4c3c2)c1OC [Compound 445, 8-({2-[2,3-bis(methyloxy)phenyl]ethyl}amino)-2-{[(3S)-3-hydroxypyrrolidin-1-yl]methyl}[1]benzofuro[3,2-d]pyrimidin-4(3H)-one] |
| < 10 | < 10 | O=c1[nH]c(-c2ccc(N3CCNCC3)cc2)nc2c1oc1ccc(Br)cc12 [Compound 303, 8-Bromo-2-(4-piperazin-1-ylphenyl)[1]benzofuro[3,2-d]pyrimidin-4(3H)-one] |
| < 10 | < 10 | O=C(Nc1ccc(Cl)c(-c2nc3c(oc4ccc(Br)cc43)c(=O)[nH]2)c1)c1ccnc(Cl)c1 [Compound 326, N-[3-(8-bromo-4-oxo-3,4-dihydro[1]benzofuro[3,2-d]pyrimidin-2-yl)-4-chlorophenyl]-2-chloropyridine-4-carboxamide] |
| < 10 | < 10 | CC(C)(C)OC(=O)N1CCOC(c2nc3c(oc4ccc(Br)cc43)c(=O)[nH]2)C1 (centres unmarked) [Compound 297, 1,1-Dimethylethyl 2-(8-bromo-4-oxo-3,4-dihydro[1]benzofuro[3,2-d]pyrimidin-2-yl)morpholine-4-carboxylate] |
| < 10 | < 10 | Nc1cc(C(=O)Nc2ccc(-c3nc4c(oc5ccc(Br)cc54)c(=O)[nH]3)c(Cl)c2)ccn1 [Compound 284, 2-amino-N-[4-(8-bromo-4-oxo-3,4-dihydro[1]benzofuro[3,2-d]pyrimidin-2-yl)-3-chlorophenyl]pyridine-4-carboxamide] |
| < 10 | < 10 | COc1ccc(C(=O)Nc2ccc(-c3nc4c(oc5ccc(Br)cc54)c(=O)[nH]3)c(Cl)c2)cc1 [Compound 285, N-[4-(8-bromo-4-oxo-3,4-dihydro[1]benzofuro[3,2-d]pyrimidin-2-yl)-3-chlorophenyl]-4-(methyloxy)benzamide] |
| < 10 | < 10 | O=C(Nc1ccc(Cl)c(-c2nc3c(oc4ccc(Br)cc43)c(=O)[nH]2)c1)c1ccc(Cl)cn1 [Compound 340, N-[3-(8-bromo-4-oxo-3,4-dihydro[1]benzofuro[3,2-d]pyrimidin-2-yl)-4-chlorophenyl]-5-chloropyridine-2-carboxamide] |
| < 10 | < 10 | COc1cccc(CNCc2nc3c(oc4ccc(Br)cc43)c(=O)[nH]2)c1 [Compound 255, 8-bromo-2-[({[3-(methyloxy)phenyl]methyl}amino)methyl][1]benzofuro[3,2-d]pyrimidin-4(3H)-one] |
| < 10 | < 10 | O=C(Nc1ccc(-c2nc3c(oc4ccc(Br)cc43)c(=O)[nH]2)c(Cl)c1)C1CCCCC1 [Compound 250, N-[4-(8-bromo-4-oxo-3,4-dihydro[1]benzofuro[3,2-d]pyrimidin-2-yl)-3-chlorophenyl]cyclohexanecarboxamide] |
| < 10 | < 10 | O=C(Nc1ccc(-c2nc3c(oc4ccc(Br)cc43)c(=O)[nH]2)c(Cl)c1)c1ccc2cccnc2n1 [Compound 405, N-[4-(8-bromo-4-oxo-3,4-dihydro[1]benzofuro[3,2-d]pyrimidin-2-yl)-3-chlorophenyl]-1,8-naphthyridine-2-carboxamide] |
| < 10 | < 10 | O=C(Nc1ccc(-c2nc3c(oc4ccc(Br)cc43)c(=O)[nH]2)c(Cl)c1)c1ccc(CO)cn1 [Compound 345, N-[4-(8-bromo-4-oxo-3,4-dihydro[1]benzofuro[3,2-d]pyrimidin-2-yl)-3-chlorophenyl]-5-(hydroxymethyl)pyridine-2-carboxamide] |
| < 10 | < 10 | O=c1[nH]c(NCCO)nc2c1oc1ccc(Br)cc12 [Compound 309, 8-Bromo-2-[(2-hydroxyethyl)amino][1]benzofuro[3,2-d]pyrimidin-4(3H)-one] |
| < 10 | < 10 | O=c1[nH]c(CN2CC[C@H](O)C2)nc2c1oc1ccc(NCc3ccccc3)cc12 [Compound 443, 2-{[(3S)-3-hydroxypyrrolidin-1-yl]methyl}-8-[(phenylmethyl)amino][1]benzofuro[3,2-d]pyrimidin-4(3H)-one] |
| < 10 | < 10 | O=c1[nH]c(CN2CC[C@H](O)C2)nc2c1oc1ccc(NCc3ccc(F)cc3F)cc12 [Compound 465, 8-{[(2,4-difluorophenyl)methyl]amino}-2-{[(3S)-3-hydroxypyrrolidin-1-yl]methyl}[1]benzofuro[3,2-d]pyrimidin-4(3H)-one] |
